Assay results as given in ChEMBL document CHEMBL3785008, “Piperine in food: interference in the pharmacokinetics of phenytoin” (Eur J Drug Metab Pharmacokinet, 2001).
Values belong to the compound of their own block, whether it stands above or below them.

Columns and labels:
[1] = Cmax in Swiss albino mouse serum at 0.3 mg, po by HPLC method; assay type: ADME, organism-based; design: dose 0.3 mg, route oral
[2] = Tmax in Swiss albino mouse serum at 0.3 mg, po by HPLC method; assay type: ADME, organism-based
[3] = Cmax in healthy adult human subjects after consumption of 44 mg equivalent of piperine in form of pepper in soup (melahu rasam) by HPLC method; assay type: ADME, organism-based; design: dose 44 mg; conditions: in vivo, po
[4] = Tmax in healthy adult human subjects after consumption of 44 mg equivalent of piperine in form of pepper in soup (melahu rasam) by HPLC method; assay type: ADME, organism-based; conditions: in vivo, po
[5] = AUC (0 to 12.5 hrs) in healthy adult human subjects after consumption of 44 mg equivalent of piperine in form of pepper in soup (melahu rasam) by HPLC method; assay type: ADME, organism-based; design: dose 44 mg, time < 12.5 hr; conditions: in vivo, po
[6] = AUC (0 to infinity) in healthy adult human subjects after consumption of 44 mg equivalent of piperine in form of pepper in soup (melahu rasam) by HPLC method; assay type: ADME, organism-based; design: dose 44 mg, time infinity; conditions: in vivo, po
Homo sapiens [7] = species: Homo sapiens; test: Drug absorption rate constant in healthy adult human subjects after consumption of 44 mg equivalent of piperine in form of pepper in soup (melahu rasam) by HPLC method; assay type: ADME, organism-based; conditions: in vivo, po
[8] = Drug elimination rate constant in healthy adult human subjects after consumption of 44 mg equivalent of piperine in form of pepper in soup (melahu rasam) by HPLC method; assay type: ADME, organism-based; conditions: in vivo, po
[9] = Drug excretion in human urine assessed as hydroxyphenylphenylhydantoin and glucuronide conjugate level; assay type: ADME, tissue-based
Mus musculus = test: Ratio of drug level in 0.6 mg, po piperine pre-treated Swiss albino mouse at 10 mg, po to drug level in normal Swiss albino mouse at 10 mg, po; assay type: ADME, organism-based; conditions: in vivo
[10] = AUC (0 to 10 hrs) in normal Swiss albino mouse at 10 mg, po by HPLC method; assay type: ADME, organism-based; design: time < 10 hr, dose 10 mg, route oral; conditions: in vivo
[11] = AUC (0 to 10 hrs) in 0.6 mg, po piperine pre-treated Swiss albino mouse at 10 mg, po by HPLC method; assay type: ADME, organism-based; design: dose 0.6 mg, time < 10 hr, route oral; conditions: in vivo
[12] = AUC (0 to 48 hrs) in healthy adult human subjects at 300 mg, po by HPLC method; assay type: ADME, organism-based; design: time < 48 hr, dose 300 mg, route oral; conditions: in vivo
[13] = AUC (0 to infinity) in healthy adult human subjects at 300 mg, po by HPLC method; assay type: ADME, organism-based; design: dose 300 mg, route oral, time infinity; conditions: in vivo
Homo sapiens [14] = test: Drug absorption in healthy adult human subjects at 300 mg, po by HPLC method; assay type: ADME, organism-based; conditions: in vivo
Homo sapiens [15] = test: Drug lag time in healthy adult human subjects at 300 mg, po by HPLC method; assay type: ADME, organism-based; conditions: in vivo
[16] = Elimination half life in healthy adult human subjects at 300 mg, po by HPLC method; assay type: ADME, organism-based; conditions: in vivo, read-out: beta t1/2 (converted)
[17] = Clearance in healthy adult human subjects at 300 mg, po by HPLC method; assay type: ADME, organism-based; conditions: in vivo
Homo sapiens [18] = test: Volume of distribution in healthy adult human subjects at 300 mg, po by HPLC method; assay type: ADME, organism-based; conditions: in vivo
[19] = Cmax in healthy adult human subjects at 300 mg, po by HPLC method; assay type: ADME, organism-based; design: dose 300 mg, route oral; conditions: in vivo
[20] = Tmax in healthy adult human subjects at 300 mg, po by HPLC method; assay type: ADME, organism-based; conditions: in vivo
[21] = Mean residence time in healthy adult human subjects at 300 mg, po by HPLC method; assay type: ADME, organism-based; conditions: in vivo
[22] = AUC (0 to 48 hrs) in healthy adult human subjects at 300 mg, po dosed 30 minutes after ingestion of soup (melahu rasam) with black pepper by HPLC method; assay type: ADME, organism-based; design: time < 48 hr, dose 300 mg, route oral; conditions: in vivo
[23] = AUC (0 to infinity) in healthy adult human subjects at 300 mg, po dosed 30 minutes after ingestion of soup (melahu rasam) with black pepper by HPLC method; assay type: ADME, organism-based; design: dose 300 mg, time infinity, route oral; conditions: in vivo
Homo sapiens [24] = test: Drug absorption in healthy adult human subjects at 300 mg, po dosed 30 minutes after ingestion of soup (melahu rasam) with black pepper by HPLC method; assay type: ADME, organism-based; conditions: in vivo, 0.5 h
Homo sapiens [25] = test: Drug lag time in healthy adult human subjects at 300 mg, po dosed 30 minutes after ingestion of soup (melahu rasam) with black pepper by HPLC method; assay type: ADME, organism-based; conditions: in vivo, 0.5 h
[26] = Elimination half life in healthy adult human subjects at 300 mg, po dosed 30 minutes after ingestion of soup (melahu rasam) with black pepper by HPLC method; assay type: ADME, organism-based; conditions: in vivo, read-out: beta t1/2 (converted)
[27] = Clearance in healthy adult human subjects at 300 mg, po dosed 30 minutes after ingestion of soup (melahu rasam) with black pepper by HPLC method; assay type: ADME, organism-based; conditions: in vivo
Homo sapiens [28] = test: Volume of distribution in healthy adult human subjects at 300 mg, po dosed 30 minutes after ingestion of soup (melahu rasam) with black pepper by HPLC method; assay type: ADME, organism-based; conditions: in vivo, 0.5 h
[29] = Cmax in healthy adult human subjects at 300 mg, po dosed 30 minutes after ingestion of soup (melahu rasam) with black pepper by HPLC method; assay type: ADME, organism-based; design: dose 300 mg, route oral; conditions: in vivo
[30] = Tmax in healthy adult human subjects at 300 mg, po dosed 30 minutes after ingestion of soup (melahu rasam) with black pepper by HPLC method; assay type: ADME, organism-based; conditions: in vivo
[31] = Mean residence time in healthy adult human subjects at 300 mg, po dosed 30 minutes after ingestion of soup (melahu rasam) with black pepper by HPLC method; assay type: ADME, organism-based; conditions: in vivo

Cmax [1]: 5470 ng/mL
Tmax [2]: 6 h
Cmax [3]: 400 ng/mL
Tmax [4]: 2.5 h
AUC(0-t) at 12.5 h [5]: 3.37 µg·h/mL
AUC(0-inf) [6]: 5.3 µg·h/mL
ka (Homo sapiens [7]): 1.41 h⁻¹
k el [8]: 2.22e-05 s⁻¹
SMILES: O=C(/C=C/C=C/c1ccc2c(c1)OCO2)N1CCCCC1 [PIPERINE]

Drug excretion [9]: 60%
SMILES: O=C1NC(=O)C(c2ccccc2)(c2ccccc2)N1 [PHENYTOIN]

Ratio (Mus musculus): 1.8
AUC(0-t) at 10 h [10]: 716 µg·h/mL
AUC(0-t) at 10 h [11]: 891 µg·h/mL
AUC(0-t) at 48 h [12]: 102 µg·h/mL
AUC(0-inf) [13]: 143 µg·h/mL
ka (Homo sapiens [14]): 0.666 h⁻¹
Tlag (Homo sapiens [15]): 0.655 h
half-life [16]: 22.5 h
CL/F [17]: 41.3 mL/min
Vd (Homo sapiens [18]): 65.02 L
Cmax [19]: 3820 ng/mL
Tmax [20]: 5.32 h
MRT [21]: 34.2 h
AUC(0-t) at 48 h [22]: 153 µg·h/mL
AUC(0-inf) [23]: 332 µg·h/mL
ka (Homo sapiens [24]): 1.177 h⁻¹
Tlag (Homo sapiens [25]): 0.168 h
half-life [26]: 49.7 h
CL/F [27]: 15.9 mL/min
Vd (Homo sapiens [28]): 64.58 L
Cmax [29]: 4310 ng/mL
Tmax [30]: 3.38 h
MRT [31]: 70.9 h
SMILES: O=C1N=C([O-])NC1(c1ccccc1)c1ccccc1.[Na+] [PHENYTOIN SODIUM]
